Experimental data reported in PubChem BioAssay (NCI).
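Test compounds were applied to cells in 96-well plates for 48 hours at 5 doses. The concentration for full growth arrest is given as TGI.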

How the values were obtained:
Test in all cases: NCI tumour cell line growth inhibition, 48 h
HCC-2998 colon = system: HCC-2998 colon
SK-MEL-2 melanoma = system: SK-MEL-2 melanoma
MOLT-4 leukemia = system: MOLT-4 leukemia
SK-MEL-28 melanoma = system: SK-MEL-28 melanoma
SK-OV-3 ovarian = system: SK-OV-3 ovarian
RXF 393 renal = system: RXF 393 renal
HL-60(TB) leukemia = system: HL-60(TB) leukemia
SW-620 colon = system: SW-620 colon
SNB-75 CNS = system: SNB-75 CNS
NCI-H522 lung = system: NCI-H522 lung
HCT-116 colon = system: HCT-116 colon
CCRF-CEM leukemia = system: CCRF-CEM leukemia
786-0 renal = system: 786-0 renal
MALME-3M melanoma = system: MALME-3M melanoma
LOX IMVI melanoma = system: LOX IMVI melanoma
U251 CNS = system: U251 CNS
OVCAR-4 ovarian = system: OVCAR-4 ovarian
NCI-H226 lung = system: NCI-H226 lung
TK-10 renal = system: TK-10 renal
SNB-19 CNS = system: SNB-19 CNS
DLD-1 colon = system: DLD-1 colon
HT29 colon = system: HT29 colon
A549 NSCLC = system: A549 NSCLC
XF 498 CNS = system: XF 498 CNS
KM20L2 colon = system: KM20L2 colon
ACHN renal = system: ACHN renal
SN12C renal = system: SN12C renal
K-562 leukemia = system: K-562 leukemia
UACC-257 melanoma = system: UACC-257 melanoma
HCT-15 colon = system: HCT-15 colon
HOP-92 NSCLC = system: HOP-92 NSCLC
DMS 273 small cell lung = system: DMS 273 small cell lung
OVCAR-8 ovarian = system: OVCAR-8 ovarian
SNB-78 CNS = system: SNB-78 CNS
KM12 colon = system: KM12 colon
M14 melanoma = system: M14 melanoma
LXFL 529 NSCLC = system: LXFL 529 NSCLC
SF-268 CNS = system: SF-268 CNS
NCI-H23 lung = system: NCI-H23 lung
COLO 205 colon = system: COLO 205 colon
RPMI-8226 leukemia = system: RPMI-8226 leukemia
OVCAR-3 ovarian = system: OVCAR-3 ovarian
IGROV1 ovarian = system: IGROV1 ovarian
SK-MEL-5 melanoma = system: SK-MEL-5 melanoma
EKVX NSCLC = system: EKVX NSCLC
NCI-H460 lung = system: NCI-H460 lung
DMS 114 small cell lung = system: DMS 114 small cell lung
SF-295 CNS = system: SF-295 CNS
UACC-62 melanoma = system: UACC-62 melanoma
OVCAR-5 ovarian = system: OVCAR-5 ovarian
SF-539 CNS = system: SF-539 CNS
M19-MEL melanoma = system: M19-MEL melanoma
HOP-62 NSCLC = system: HOP-62 NSCLC
A498 renal = system: A498 renal
HOP-18 NSCLC = system: HOP-18 NSCLC
UO-31 renal = system: UO-31 renal
CAKI-1 renal = system: CAKI-1 renal

Measured: TGI

C/C(=N\N(C)C)C(CN(C)C)C(c1ccccc1)c1c(O)c2ccccc2oc1=O (stereo unspecified)
> 100 µM: HCC-2998 colon | SK-MEL-2 melanoma | MOLT-4 leukemia | SK-MEL-28 melanoma | SK-OV-3 ovarian | RXF 393 renal | HL-60(TB) leukemia | SW-620 colon | SNB-75 CNS | NCI-H522 lung | HCT-116 colon | CCRF-CEM leukemia | 786-0 renal | MALME-3M melanoma | LOX IMVI melanoma | U251 CNS | OVCAR-4 ovarian | NCI-H226 lung | TK-10 renal | SNB-19 CNS | DLD-1 colon | HT29 colon | A549 NSCLC | XF 498 CNS | KM20L2 colon | ACHN renal | SN12C renal | K-562 leukemia | UACC-257 melanoma | HCT-15 colon | HOP-92 NSCLC | DMS 273 small cell lung | OVCAR-8 ovarian | SNB-78 CNS | KM12 colon | M14 melanoma | LXFL 529 NSCLC | SF-268 CNS | NCI-H23 lung | COLO 205 colon | RPMI-8226 leukemia | OVCAR-3 ovarian | IGROV1 ovarian | SK-MEL-5 melanoma | EKVX NSCLC | NCI-H460 lung | DMS 114 small cell lung | SF-295 CNS | UACC-62 melanoma | OVCAR-5 ovarian

O=C(CCCCCCCCC(=O)OCC1OC(n2cnc3c(=O)[nH]cnc32)C(O)C1O)OCC1OC(n2cnc3c(=O)[nH]cnc32)C(O)C1O (stereo unspecified)
> 100 µM: HCC-2998 colon | SK-MEL-2 melanoma | MOLT-4 leukemia | SK-MEL-28 melanoma | SK-OV-3 ovarian | RXF 393 renal | HL-60(TB) leukemia | SW-620 colon | SNB-75 CNS | NCI-H522 lung | HCT-116 colon | CCRF-CEM leukemia | 786-0 renal | MALME-3M melanoma | LOX IMVI melanoma | U251 CNS | OVCAR-4 ovarian | NCI-H226 lung | TK-10 renal | SNB-19 CNS | DLD-1 colon | HT29 colon | SF-539 CNS | A549 NSCLC | XF 498 CNS | KM20L2 colon | ACHN renal | SN12C renal | K-562 leukemia | UACC-257 melanoma | HCT-15 colon | HOP-92 NSCLC | DMS 273 small cell lung | OVCAR-8 ovarian | SNB-78 CNS | KM12 colon | M14 melanoma | M19-MEL melanoma | SF-268 CNS | HOP-62 NSCLC | NCI-H23 lung | COLO 205 colon | RPMI-8226 leukemia | OVCAR-3 ovarian | IGROV1 ovarian | SK-MEL-5 melanoma | EKVX NSCLC | NCI-H460 lung | DMS 114 small cell lung | SF-295 CNS | A498 renal | UACC-62 melanoma | OVCAR-5 ovarian | HOP-18 NSCLC | UO-31 renal | CAKI-1 renal
